Assay results as given in ChEMBL document CHEMBL1156041, “Synthesis and antifungal activity of benzo[d]oxazole-4,7-diones” (2009).
≈ marks a conversion by molar mass, not a printed value.

Columns and labels:
Assay type in all cases: functional
Cryptococcus neoformans = assay: Antifungal activity against Cryptococcus neoformans KCCM 50564 after 1 day by twofold broth dilution method; settings: KCCM 50564, 24 h
Aspergillus niger = assay: Antifungal activity against Aspergillus niger KCTC 1231 after 2 days by twofold broth dilution method; settings: KCTC 1231, 48 h
Pichia kudriavzevii = assay: Antifungal activity against Candida krusei Berkout KCCM 11655 after 1 day by twofold broth dilution method; settings: KCCM 11655, 24 h
Candida tropicalis = assay: Antifungal activity against Candida tropicalis Berkout KCCM 50662 after 1 day by twofold broth dilution method; settings: KCCM 50662, 24 h
Candida albicans = assay: Antifungal activity against Candida albicans Berkout KCCM 50235 after 1 day by twofold broth dilution method; settings: KCCM 50235, 24 h
Aspergillus flavus = assay: Antifungal activity against Aspergillus flavus KCCM 11899 by twofold broth dilution method

MIC (Cryptococcus neoformans) [µg/mL] | MIC (Aspergillus niger) [µg/mL] | MIC (Pichia kudriavzevii) [µg/mL] | MIC (Candida tropicalis) [µg/mL] | MIC (Candida albicans) [µg/mL] | MIC (Aspergillus flavus) [µg/mL] | SMILES
6.3 (≈ 16.5 µM) | 3.2 (≈ 8.39 µM) | 6.3 (≈ 16.5 µM) | 25 (≈ 65.5 µM) | 6.3 (≈ 16.5 µM) | 3.2 (≈ 8.39 µM) | CCc1nc2c(o1)C(=O)C(Nc1ccc(Cl)cc1)=C(Br)C2=O
12.5 (≈ 27.8 µM) | 12.5 (≈ 27.8 µM) | 3.2 (≈ 7.12 µM) | 12.5 (≈ 27.8 µM) | 25 (≈ 55.6 µM) | 6.3 (≈ 14 µM) | CCc1nc2c(o1)C(=O)C(Sc1ccc(C)c(C)c1)=C(Sc1ccc(C)c(C)c1)C2=O
12.5 (≈ 34.4 µM) | 50 (≈ 138 µM) | 25 (≈ 68.8 µM) | 12.5 (≈ 34.4 µM) | 50 (≈ 138 µM) | 25 (≈ 68.8 µM) | CCc1nc2c(o1)C(=O)C(Nc1ccc(O)cc1)=C(Br)C2=O
12.5 (≈ 33.6 µM) | 12.5 (≈ 33.6 µM) | 50 (≈ 134 µM) | 6.3 (≈ 16.9 µM) | 12.5 (≈ 33.6 µM) | 6.3 (≈ 16.9 µM) | CCc1nc2c(o1)C(=O)C(Nc1cccc(C#N)c1)=C(Br)C2=O
6.3 (≈ 17.3 µM) | 6.3 (≈ 17.3 µM) | 6.3 (≈ 17.3 µM) | 6.3 (≈ 17.3 µM) | 12.5 (≈ 34.2 µM) | 3.2 (≈ 8.76 µM) | CCc1nc2c(o1)C(=O)C(Nc1ccc(F)cc1)=C(Br)C2=O
25 (≈ 63.7 µM) | 25 (≈ 63.7 µM) | 50 (≈ 127 µM) | 50 (≈ 127 µM) | 50 (≈ 127 µM) | 25 (≈ 63.7 µM) | CCc1nc2c(o1)C(=O)C(Nc1ccc([N+](=O)[O-])cc1)=C(Br)C2=O
12.5 (≈ 31.8 µM) | 12.5 (≈ 31.8 µM) | 12.5 (≈ 31.8 µM) | 12.5 (≈ 31.8 µM) | 12.5 (≈ 31.8 µM) | 12.5 (≈ 31.8 µM) | CCc1nc2c(o1)C(=O)C(Sc1ccccc1)=C(Sc1ccccc1)C2=O
100 (≈ 617 µM) | > 100 | 100 (≈ 617 µM) | 50 (≈ 308 µM) | > 100 | > 100 | CCc1nc2c(N)cccc2o1
3.2 (≈ 6.76 µM) | 6.3 (≈ 13.3 µM) | 3.2 (≈ 6.76 µM) | 6.3 (≈ 13.3 µM) | 6.3 (≈ 13.3 µM) | 3.2 (≈ 6.76 µM) | CCc1nc2c(o1)C(=O)C(Nc1ccc(I)cc1)=C(Br)C2=O
25 (≈ 49.4 µM) | 25 (≈ 49.4 µM) | 50 (≈ 98.9 µM) | 25 (≈ 49.4 µM) | 12.5 (≈ 24.7 µM) | 25 (≈ 49.4 µM) | CCc1nc2c(o1)C(=O)C(Sc1ccc(CC)c(CC)c1)=C(Sc1ccc(CC)c(CC)c1)C2=O
25 (≈ 67.2 µM) | 25 (≈ 67.2 µM) | 50 (≈ 134 µM) | 50 (≈ 134 µM) | 50 (≈ 134 µM) | 25 (≈ 67.2 µM) | CCc1nc2c(o1)C(=O)C(Nc1ccc(C#N)cc1)=C(Br)C2=O
25 (≈ 68.8 µM) | 50 (≈ 138 µM) | 25 (≈ 68.8 µM) | 6.3 (≈ 17.3 µM) | 50 (≈ 138 µM) | 25 (≈ 68.8 µM) | CCc1nc2c(o1)C(=O)C(Nc1cccc(O)c1)=C(Br)C2=O
1.6 (≈ 4.61 µM) | 1.6 (≈ 4.61 µM) | 3.2 (≈ 9.22 µM) | 3.2 (≈ 9.22 µM) | 1.6 (≈ 4.61 µM) | 3.2 (≈ 9.22 µM) | CCc1nc2c(o1)C(=O)C(Nc1ccccc1)=C(Br)C2=O
1.6 (≈ 3.76 µM) | 0.8 (≈ 1.88 µM) | 3.2 (≈ 7.51 µM) | 3.2 (≈ 7.51 µM) | 0.8 (≈ 1.88 µM) | 1.6 (≈ 3.76 µM) | CCc1nc2c(o1)C(=O)C(Nc1ccc(Br)cc1)=C(Br)C2=O
3.2 (≈ 8.39 µM) | 3.2 (≈ 8.39 µM) | 6.3 (≈ 16.5 µM) | 6.3 (≈ 16.5 µM) | 6.3 (≈ 16.5 µM) | 3.2 (≈ 8.39 µM) | CCc1nc2c(o1)C(=O)C(Nc1cccc(Cl)c1)=C(Br)C2=O
3.2 (≈ 8.48 µM) | 3.2 (≈ 8.48 µM) | 1.6 (≈ 4.24 µM) | 12.5 (≈ 33.1 µM) | 6.35 (≈ 16.8 µM) | 6.3 (≈ 16.7 µM) | CCc1nc2c(o1)C(=O)C(Nc1ccc(OC)cc1)=C(Br)C2=O
12.5 (≈ 17.6 µM) | 25 (≈ 35.3 µM) | 12.5 (≈ 17.6 µM) | 50 (≈ 70.5 µM) | 50 (≈ 70.5 µM) | 25 (≈ 35.3 µM) | CCc1nc2c(o1)C(=O)C(Sc1ccc(Br)c(Br)c1)=C(Sc1ccc(Br)c(Br)c1)C2=O
6.3 (≈ 17.3 µM) | 6.3 (≈ 17.3 µM) | 6.3 (≈ 17.3 µM) | 3.2 (≈ 8.76 µM) | 12.5 (≈ 34.2 µM) | 6.3 (≈ 17.3 µM) | CCc1nc2c(o1)C(=O)C(Nc1cccc(F)c1)=C(Br)C2=O
3.2 (≈ 24.8 µM) | 1.6 (≈ 12.4 µM) | 3.2 (≈ 24.8 µM) | 3.2 (≈ 24.8 µM) | 3.2 (≈ 24.8 µM) | 1.6 (≈ 12.4 µM) | Nc1nc(=O)[nH]cc1F [FLUCYTOSINE]
